Values quoted from earlier work as cited in EP0062861A1, “Isophorone-free formulations of the herbicide propanyl” (Montedison S.p.A., priority 1981, dated 1982).

Tested on: mammalians
Conditions: toxicity towards mammalians

CCC(=O)Nc1ccc(Cl)c(Cl)c1 [Propanyl, N-(3,4-dichlorophenyl)-propionamide]
LD 50: 1384 mg/kg
